These results are taken from patent US6011052A, “Pyrazolone derivatives as MCP-1 antagonists” (Warner-Lambert Company, priority 1997, dated 2000).

The inhibition is the change of the read-out against control, counted positive when it falls. In general, IC50 refers to the concentration that gives 50% inhibition.

Experiment [1] has as its system CD3-Blast (MCP-1 mediated chemotaxis). As to the kind of experiment: MCP-1 mediated CD3-Blast chemotaxis assay (transendothelial migration over ECV304 cells). The format is cell-based. The conditions noted are these: Homo sapiens, ECV-304; for inhibition at 10 µM: range given for multiple replications. How it is done: Recombinant human MCP-1 was obtained from Peprotech (Rockey Hill, N.J.). […] RBCs were removed by hypotonic lysis. […] The cells are expanded and cultured for up to 3 weeks. […] The endothelial cells used for this assay were the endothelial cell line ECV304, obtained from the ECACE (Porton Downs, UK). Endothelial cells were cultured on 6.5 mm diameter Transwell culture inserts (Costar) with a […] pore size. […] Twenty four hours before the assay, 2×10^5 ECV304 cells were plated onto each innert of the 24 well chemotaxis plate and incubated at 37° C. MCP-1 (diluted in assay medium) with or without compounds, was added to the 24-well tissue culture plates in a final volume of […]. […] The cells that had migrated to the bottom chamber were enumerated using flow cytommetry. […] of the cell suspension from the lower chamber was placed in a tube, and relative cell counts were obtained by acquiring events for a set time period of 30 seconds. […] Background migration was determined by counting cells that migrated in the absence of MCP-1 in the lower chamber. This background migration of cells per 30 second count was substrated from the migration to MCP-1 to obtain specific migration. The percent inhibition by compounds of directed migration was determined by the following formula: 1 minus the specific migration in the presence of MCP-1 and compound, divided by the specific migration in the presence of just MCP-1. [drawing 13]

The target of experiment [2] is T1, MCP-1 receptor (Homo sapiens, UniProt P41597).
T1 construct: endogenous in cells; host or cells: THP-1 cells (ATCC TIB 202), selected for increased MCP-1 receptor expression
T1 sequence (P41597 1-360 isoform P41597-2): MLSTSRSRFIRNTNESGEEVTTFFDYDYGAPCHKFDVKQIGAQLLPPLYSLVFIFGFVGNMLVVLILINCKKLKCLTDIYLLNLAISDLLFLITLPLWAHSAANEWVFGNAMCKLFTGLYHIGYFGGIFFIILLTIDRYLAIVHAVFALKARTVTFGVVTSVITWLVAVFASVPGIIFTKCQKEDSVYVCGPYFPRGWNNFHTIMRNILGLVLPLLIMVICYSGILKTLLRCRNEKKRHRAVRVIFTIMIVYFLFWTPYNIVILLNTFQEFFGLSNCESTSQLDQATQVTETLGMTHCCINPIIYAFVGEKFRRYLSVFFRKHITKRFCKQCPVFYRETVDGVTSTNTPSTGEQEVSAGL
As to the kind of experiment: MCP-1 binding assay (125I-labeled MCP-1, THP-1 cell membranes). The conditions noted are these: for IC50: THP-1 membranes, 0.2 nM 125I-MCP-1, 30 minutes at room temperature, read-out: Inhibition of MCP-1 Binding IC50; for inhibition at 10 µM: printed in the IC50 μM column, read-out: Inhibition of MCP-1 Binding, percent @ 10 μM. How it is done:
Membranes used in the MCP-1 binding assay were prepared from THP-1 cells (human monocytic cell line source--American Type Culture Collection, Tumor Immunology Bank #202, Rockville, Md., accession no. ATCC TIB 202) selected for increased levels of expression of the MCP-1 receptor. Cells were harvested by centrifugation and washed twice in ice-cold PBS (phosphate-buffered saline) and the cell pellet was frozen at -80° C. in some cases. Cells were resuspended in ice-cold lysis buffer 5 mM HEPES (2-(4N-[2-hydroxyethyl] piperazin-1-yl)-N'-(2-ethanesulfonic acid), pH 7.5, 2 mM EDTA (ethylenediaminetetraacetic acid), 5 ug/ml each leupeptin, aprotinin, chymostatin (protease inhibitors), and 100 ug/ml PMSF (phenylmethane sulfonyl fluoride--also a protease inhibitor)) at a concentration of 5×10^7 cells/ml. The cell suspension was dounced 10-15 times using the B pestle (small pestle of tissue grinder--clearance is 0.07 mm; source--Fisher Scientific) on ice. Nuclei and debris were removed by centrifugation at 500-1000×g for 10 minutes at 4° C. The supernatant was transferred to a fresh tube and centrifuged at 25,000×g for 30 minutes at 4° C. The supernatant was aspirated and the pellet was resuspended in freezing buffer (10 mM HEPES, pH 7.5, 300 mM sucrose, 1 ug/ml each leupeptin, aprotinin, chymostatin, and 10 ug/ml PMSF) using a minihomogenizer until all clumps were resolved. Membranes were aliquoted and frozen at minus 70-85° C. until needed. Typical binding assays used 10-20 ug/well of total membrane protein as determined with a standard protein assay (e.g. BioRad, Richmond, Calif.) or: as determined with a Bradford protein assay (e.g. BioRad, Richmond, Calif.).
For binding, different amounts of membranes were included in the binding reaction along with 0.2 nM I^125 -labeled MCP-1 (Amersham, Arlington Heights, Ill.) with or without unlabeled cold competitor MCP-1 (Peprotech, Rocky Hill, N.J.) (at 500 nM). Binding reactions were performed in a final volume of 100 ul in a binding buffer containing 10 mM HEPES, pH 7.2, 1 mM CaCl2, 5 mM MgCl2, 0.5% BSA (bovine serum albumin). After 30 minutes at room temperature, the binding reactions were filtered through GF/C filters (Whatman glass fiber filters, Type C) or GF/B unifilter plates (Parkard) which had been pre-soaked with 0.3% poly ethyleneimine and washed twice with binding buffer containing 0.5 M NaCl. Filters were dried and counted in a Beta-Plate scintillation counter using standard scintillation fluid. Final concentration of compound in the binding assay ranged from 0.05-100 μM. Compounds were dissolved in DMSO (dimethyl sulfoxide). Final concentrations of DMSO in the binding were kept constant at 0.05%.
IC50s were calculated using a 3-parameter logistic fit. Negative control contained same amount of DMSO vehicle asused in wells containing compound. Positive control contained 500 nM cold competitor MCP-1 in DMSO vehicle.

Experiment [3] deals with skin DHR sites. As to the kind of experiment: Histologic analysis of skin DHR sites in rats. Conditions: 15 mg/kg per os, compared to sensitized animals given vehicle alone. The format is in vivo, rat (Lewis). How it is done:
Inbred, approximately 200 gm, male Lewis rats were used in all experiments. Cutaneous delayed hypersensitivity (DHR) was induced as previously described (1). Briefly, rats were sensitized to KLH (keyhole limpet hemocyanis) (Sigma Chemical Co., St. Louis, Mo.) by administering 50 μg KLH in 0.1 ml complete Freund's adjuvant (CFA; Sigma Chemical Co.) into each of 4 subcutaneous sites. After 14 days, DHR was elicited by the challenge of 5 μg KLH in PBS into multiple intradermal sites on the back. Analysis was performed 24 hours after antigen challenge. For each experiment, there were at least three groups of animals of at least four animals in each group. One group of nonsensitized, naive animals was used as a negative control and received vehicle alone (consisting of 0.5% hydroxypropylmethylcellulose/0.2% Tween 80 in water) per os at the time of challenge. As positive controls, one group of sensitized animals received vehicle alone per os at the time of KLH challenge. A third group consisted of sensitized animals that received compound suspended in vehicle per os at the time of KLH challenge.
For histologic analysis, representative skin specimens were fixed in 10% phosphate-buffered formalin, processed by routine histological techniques, cut at a thickness of […], and sections stained with hematoxylin and eosin.

For experiment [4], the system named is rat T cells, skin DHR sites. As to the kind of experiment: T cell recruitment at sites of cutaneous delayed hypersensitivity (DHR) to KLH in rats. The format is in vivo, rat (Lewis). The conditions noted are these: 24 hours. As to the method:
Inbred, approximately 200 gm, male Lewis rats were used in all experiments. Cutaneous delayed hypersensitivity (DHR) was induced as previously described (1). Briefly, rats were sensitized to KLH (keyhole limpet hemocyanis) (Sigma Chemical Co., St. Louis, Mo.) by administering 50 μg KLH in 0.1 ml complete Freund's adjuvant (CFA; Sigma Chemical Co.) into each of 4 subcutaneous sites. After 14 days, DHR was elicited by the challenge of 5 μg KLH in PBS into multiple intradermal sites on the back. Analysis was performed 24 hours after antigen challenge. For each experiment, there were at least three groups of animals of at least four animals in each group. […]
T cell recruitment at sites of DHR was quantified using methods previously described (1-4). […] The cells in the effluent were highly purified (>95%) rat T cells as assessed by anti-rat CD3 (monoclonal antibody KT3, Biosource International, Camarillo, Calif.) immunoreactivity by flow cytometry. […] Skin challenge sites (8 mm in diameter) were counted on a γ counter 24 hours after injection of radiolabeled T cells. Lung, liver, and spleen were also collected and counted as comparative indices for evaluation of input.
Statistical significance was determined using a paired student's t-test. […]

`Nc1c(-c2ccccc2)n[nH]c1O` [Example 4]: in experiment [1], the inhibition at 10 µM lay in the range of 58 to 61%. In experiment [2], the IC50 worked out at 730 nM.

In the case of `Cc1[nH][nH]c(=O)c1N` [Example 10], the inhibition at 10 µM in experiment [1] is 25 to 27%. On to `Cn1[nH]c(=O)c(N)c1-c1ccccc1` [Example 5], for which the inhibition at 10 µM in experiment [1] was -23 to 48%; in experiment [2] it was 90%. On to `Nc1c[nH]nc1O` [Example 9], for which, in experiment [2], the IC50 amounted to 1650 nM.

As for `Nc1c(-c2ccncc2)[nH][nH]c1=O` [Example 3], the inhibition at 10 µM is 5 to 49% in experiment [1] and 95% in experiment [2]. Take `COc1ccc(-c2[nH]nc(O)c2N)cc1` [Example 6]: the IC50 in experiment [2] turned out to be 1490 nM. Regarding `Oc1[nH]nc2c1NCCC2` [Example 37], the IC50 in experiment [2] was found to be 5640 nM. Same read-out and setting: the figure for `Cc1c(N)c(=O)n(-c2ccccc2)n1C` [Example 13] is 2270 nM.

Take `Nc1c(C2CCCCC2)[nH][nH]c1=O` [Example 1, 4-Amino 5-Cyclohexyl-3-Pyrazolone]: the inhibition at 10 µM in experiment [1] was 33 to 70%. In experiment [2], the IC50 was found to be 1270 nM. For the same molecule, in experiment [3], the “inflammatory activity of skin sites (histology)” value is recorded as “attenuated in inflammatory activity” and the “mononuclear cells infiltration in deep dermis (histology)” value is reported as “reduced mononuclear cells infiltration in deep dermis”. The “statistical significance of inhibition of T cell recruitment in rat DHR” value in experiment [4] (15 mg/kg per os at the time of antigen challenge) is given as “statistically significant inhibitory effect”. For the same molecule, in experiment [4] (once per os at the time of antigen challenge, various doses (FIG. 3)), the “inhibition of recruitment of 111In-labeled rat T cells to skin DHR sites” value is listed as “inhibited the recruitment of ^III In-labeled rat T cells to skin DHR sites in a dose-dependent fashion”. Regarding `NC(=O)c1[nH]n(-c2ccc(Cl)cc2Cl)c(=O)c1N` [Example 19], the IC50 in experiment [1] (unit inferred, read-out: Inhibition of MCP-1 mediated chemotaxis of CD3-Blast, IC50) worked out at 480 nM; in experiment [2], 6240 nM.
